One data set has as its system B16. Kind of data set: Inhibition of proliferation on B16-BL6 melanoma cells at 100 uM. The class given is functional. To be noted: Mus musculus.
Data set [1] is described as follows: Plasma concentration in mice after 1 hour of ip administration. The class given is ADME, organism-based. The settings on record: mouse.
The test system of a further data set is Mus musculus. The data set is described as follows: Inhibition of lung metastasis in C57 mice injected with B16-BL6 melanoma cells at 30 mg/kg, ip. The class given is functional. To be noted: route intraperitoneal.
The nature of data set [2]: Plasma concentration in mice after 4 hours of ip administration. To be noted: mouse. The class given is ADME, organism-based.

Consider `O=C(Nc1ccc(-c2nc3ccccc3[nH]2)cc1)Nc1ccc(-c2nc3ccccc3[nH]2)cc1`, for which, in the data set with B16, the inhibition (usually the drop in the measured response relative to a control, in per cent) at 100 µM is below 50%. Moreover, in data set [1], the concentration at 1 h came to 31 µM. For the same compound, 30 mg/kg produced 50% inhibition in vivo with Mus musculus. Also, the concentration at 4 h in data set [2] is 23 µM.

These data come from ChEMBL document CHEMBL1147776, “1-[4-(1H-Benzoimidazol-2-yl)-phenyl]-3-[4-(1H-benzoimidazol-2-yl)-phenyl]-urea derivatives as small molecule heparanase inhibitors” (Bioorg Med Chem Lett, 2006).
